Reference: patent US20250066338A1, “CERTAIN 3-AZABICYCLO[3.1.0]HEXANES AS GLP-1 RECEPTOR MODULATORS” (AstraZeneca AB, priority 2021, published 2025)
pEC50, pIC50: −log10 of the molar value.

Columns and labels:
[1] = target: human phosphodiesterase-3A (Homo sapiens (Human), UniProt Q14432); assay: PDE3 Assay; type: biochemical; details: human recombinant enzyme expressed in Sf9 cells; formation of 5'AMP from cAMP
Description: Evaluation of the effects of compounds on the activity of the human phosphodiesterase-3A is quantified by measuring the formation of 5′AMP from cAMP using a human recombinant enzyme expressed in a clonal isolate of Spodoptera frugiperda cells (Sf9) cells.
The test compound, reference compound or water (control) are added to a buffer containing 40 mM tris(hydroxymethyl)aminomethane (Tris)/HCl (pH 7.4) and 8 mM MgCl2, 450 nMcAMP and 0.25 μCi [^3H]cAMP.
Thereafter, the reaction is initiated by addition of the enzyme (about 1 U) and the mixture is incubated for 20 min at 22° C.
For basal control measurements, the enzyme is omitted from the reaction mixture. Following incubation SPA beads are added. After 30 min at 22° C. under shaking, the amount of [^3H]^+ 5′AMP is quantified with a scintillation counter (Topcount, Packard).
The results are expressed as a percent inhibition of the control enzyme activity. The standard inhibitory reference compound is milrinone (CAS number 78415-72-2), which is tested in each experiment at several concentrations to obtain an inhibition curve from which its IC50 value is calculated.

human GLP-1R receptor = human GLP-1R receptor (Homo sapiens (Human), UniProt P43220, L260F); assay: CHOK1 GLP-1R cAMP Assay; type: cell-based; details: CHO-K1 cell line stably expressing human GLP-1R; HTRF cAMP; agonist activity
Sequence of human GLP-1R receptor (P43220 24-463 L260F): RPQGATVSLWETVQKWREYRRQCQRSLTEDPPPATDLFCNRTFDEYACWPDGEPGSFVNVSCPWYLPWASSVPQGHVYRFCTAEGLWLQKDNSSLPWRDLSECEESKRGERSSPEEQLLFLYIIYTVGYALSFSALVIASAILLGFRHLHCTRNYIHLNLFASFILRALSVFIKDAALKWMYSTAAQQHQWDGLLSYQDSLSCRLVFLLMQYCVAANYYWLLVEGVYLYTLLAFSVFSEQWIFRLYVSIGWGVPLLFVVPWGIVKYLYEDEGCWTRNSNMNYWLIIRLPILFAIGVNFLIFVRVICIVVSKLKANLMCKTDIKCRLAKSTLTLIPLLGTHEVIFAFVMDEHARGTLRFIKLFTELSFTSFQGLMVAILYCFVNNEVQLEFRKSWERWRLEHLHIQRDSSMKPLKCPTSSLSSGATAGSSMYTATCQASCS
Description: A cell line stably expressing the human GLP-1R receptor (NM 002062.5, including the naturally-occurring variant Leu260Phe) in a CHO-K1 (ATCC® CCL-61™) was used for assay.
GLP-1 receptor mediated agonist activity was determined in a cell based assay measuring cyclic adenosine monophosphate (cAMP) levels in cells using Homogeneous Time-Resolved Fluorescence (HTRF) cAMP detection kit (CisBio catalog #62AM4PEC, cAMP Gs Dynamic range kit). The cAMP detection method is based on a competitive immunoassay, in which cAMP produced by the cells and cAMP labeled with the dye d2 compete for binding to a Europium-Cryptate-labeled anti-cAMP antibody. The specific HTRF signal is inversely proportional to the concentration of cAMP.
Compounds were added to individual well in 384 well-assay plates (Greiner #784076) using an Echo (LabCyte) dispenser from 10 mM stocks. Varying concentration of compounds were added to wells, and DMSO was used to normalize each well to a volume of 100 nL. A dose response curve of GLP1(7-36)NH2 (Bachem H-6795) was included in each run. 5 μL of cAMP concentration response standards are applied in specified wells in the assay plates. Cryo-preserved cells are thawed and resuspended in assay buffer pre-heated to 37° C. (20 mM HEPES pH 7.4, lx Hank's Balanced Salt Solution (HBSS, Life Technologies #14065) supplemented with 0.1% (w/v) bovine serum albumin (Sigma, A-7030). Cells were centrifuged at 250*g for 5 min at rt, and resuspended in room tempered assay buffer to a final density of 0.16*10^6 cell/mL, to deliver 800 cells/well. 5 μL of assay buffer with 1 mM 3-isobutyl-1-methylxanthin (IBMX; Sigma cat I-7018) was dispensed per well in assay plates using a multidrop combi (Thermo Scientific) subsequently 5 μL of cell suspension was distributed to relevant wells in the assay using a multidrop dispenser. Assay plates were incubated 20 min at rt.
Detection reagents, Europium-Cryptate-labeled anti-cAMP antibody and cAMP labeled with the dye d2, are diluted in lysis buffer, provided by the manufacturer. 5 μL of each detection reagent is supplemented to each assay well using a multidrop dispenser. Assay plates are incubated in the dark for at least one h. The HTRF signal is measured using the HTRF module (excitation: 337 nm, emission A: 665 nm and emission B: 620 nm) in Pherastar FSX (BMG Labtech).
Raw data were converted to pM cAMP using the cAMP standard curve included in each run. Converted data were further analyzed in Genedata Screener (Genedata) and EC50 determinations were made from agonist dose-response curves analyzed with a curve fitting program using a 4-parameter logistic dose response equation (Equation y=A+((B−A)/1+((C/x)^D))) where A is no stimulation, B is full stimulation, C is the EC50 and D is the Hill slope). The percent effect was determined relative to a saturating concentration of a full GLP-1R agonist (GLP1(7-36)NH2 has 100% effect in this assay setup).

[2] = target: GLP-1R in EndoC-βH1 cells (Homo sapiens (Human), UniProt P43220); assay: EndoC cAMP Accumulation Assay; type: cell-based; details: EndoC-βH1 human pancreatic beta cell line; HTRF cAMP accumulation
Sequence of GLP-1R in EndoC-βH1 cells (P43220 24-463): as the sequence (P43220 24-463 L260F) above, with F237L counted along it
Text: EndoC cAMP Accumulation Assay
A HTRF cAMP assay (cAMP Gs dynamic kit; CisoBio Cat #62AM4PEJ) was used to identify agonists of GLP-1R in a pancreatic insulinoma cell line (EndoC-βH1). […] EndoC-βH1 cells have detectable GLP-1R messenger ribonucleic acid (mRNA) as detected by quantitative polymerase chain reaction (qPCR). […] The EndoC-βH1 cell line is a valid model of human beta cells and applicable for screenings to identify novel drug target candidates (Mol. Metab., 2018, 8, 144-157). CisBio HTRF cAMP kits are based on a competitive immunoassay using cryptate-labelled anti-cAMP antibody and d2-labeled cAMP. The detection kit is intended for the direct quantitative determination of cAMP. The specific signal (i.e. energy transfer) is inversely proportional to the concentration of cAMP in the standard or sample. Test compounds (10 mM in DMSO) were diluted into assay buffer (HBSS (Sigma #H8264) supplemented with 25 mM HEPES (Gibco #15630, pH 7.4), 0.1% BSA (Sigma #A3059) and 0.5 mM IBMX (Sigma #17018) included fresh on the day of the assay) into 96 well U-bottom plates (Greiner #650201). Diluted compounds were transferred to ECHO source polypropylene plates (Labcyte #P-05525) and dose response curves were dispensed acoustically using ECHO 550 into black shallow-well u-bottom 384-well HTRF Assay Plates (Corning 4514).
Cryovials of EndoC-H1 (supplied at 1×10e^7 cells/vial) were used directly for screening. The cryovials and were removed from N2 (1) and thawed rapidly in a 37° C. water bath. The cells were resuspended in assay buffer and centrifuged at 300 g for 5 min. Cells were resuspended in assay buffer at the appropriate concentration, typically at 12e5 cells per mL (3000 cells per well, dependent on cell batch) and 2.5 μL diluted cells were added to all wells of destination plate by Multidrop combi reagent dispenser (Thermofisher). The plates were incubated at rt for 30 min. The assay was stopped by adding 2.5 μL anti-cAMP cryptate solution to all wells and 2.5 μL cAMP-d2 solution (both diluted 1:20 in lysis buffer) to columns 1-22 by Combi drop. A volume of 2.5 μL cAMP-d2 solution was added to wells E23 to P24 and 2.5 μL lysis buffer added to wells A23 to D24 by multichannel pipette. The plates were incubated at rt for 1 h and read on an Envision plate reader using excitation wavelength of 320 nm and emission of […] and 660 nm.
Raw data from Envision is converted to % DeltaF according to the manufacturer's instructions. Dose response curves are analysed via 4-Parameter Logistical Analysis and assay plate Z′ values obtained. Samples are graphed as percentage (%) activation plots compared to GIP (1-42, Bachem H-5645) with assay window defined by negative control as basal cell cAMP levels and positive control are defined by maximum GIP (82.5 nM) signal. GLP1 (7-36 amide, Bachem H-6795) dose response curve was included on all plates.

Sequence of human phosphodiesterase-3A (Q14432 whole entry): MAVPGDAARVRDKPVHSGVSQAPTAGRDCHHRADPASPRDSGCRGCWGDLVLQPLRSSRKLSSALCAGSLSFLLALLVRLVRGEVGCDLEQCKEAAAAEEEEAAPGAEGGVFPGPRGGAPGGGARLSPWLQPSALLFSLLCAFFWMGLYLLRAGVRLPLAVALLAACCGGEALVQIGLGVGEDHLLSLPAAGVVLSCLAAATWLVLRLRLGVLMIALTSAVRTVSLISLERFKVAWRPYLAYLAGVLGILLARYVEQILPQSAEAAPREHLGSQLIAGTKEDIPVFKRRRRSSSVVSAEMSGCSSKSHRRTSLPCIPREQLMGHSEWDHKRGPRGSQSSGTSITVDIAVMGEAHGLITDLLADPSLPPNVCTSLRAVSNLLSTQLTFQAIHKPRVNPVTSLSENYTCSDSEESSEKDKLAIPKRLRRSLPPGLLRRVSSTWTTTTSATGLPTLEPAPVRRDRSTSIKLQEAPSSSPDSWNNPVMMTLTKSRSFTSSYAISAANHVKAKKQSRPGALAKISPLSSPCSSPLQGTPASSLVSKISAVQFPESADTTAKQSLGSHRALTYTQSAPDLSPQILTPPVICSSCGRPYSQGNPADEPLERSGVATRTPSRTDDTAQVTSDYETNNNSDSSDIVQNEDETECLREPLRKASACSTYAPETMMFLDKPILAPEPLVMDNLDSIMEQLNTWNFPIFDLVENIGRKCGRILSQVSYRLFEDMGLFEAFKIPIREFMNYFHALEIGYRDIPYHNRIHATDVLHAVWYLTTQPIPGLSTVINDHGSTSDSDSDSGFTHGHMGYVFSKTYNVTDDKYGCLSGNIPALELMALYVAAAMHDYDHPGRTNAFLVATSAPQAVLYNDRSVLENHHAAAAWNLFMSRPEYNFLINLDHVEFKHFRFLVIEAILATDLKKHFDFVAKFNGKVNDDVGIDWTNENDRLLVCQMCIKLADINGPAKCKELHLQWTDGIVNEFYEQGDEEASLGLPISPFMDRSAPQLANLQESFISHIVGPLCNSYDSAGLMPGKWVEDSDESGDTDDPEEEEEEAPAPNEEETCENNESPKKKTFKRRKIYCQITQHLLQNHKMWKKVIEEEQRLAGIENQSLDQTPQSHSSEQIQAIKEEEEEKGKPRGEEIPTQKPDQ

## CCn1cncc1Cn1c(CN2C[C@@H]3[C@H](C2)[C@H]3c2nc(OCc3ccc(Cl)cc3F)ccc2F)nc2c(OC)cc(C(=O)O)cc21 [Example 17, 2-(((1R,5S,6r)-6-(6-((4-Chloro-2-fluorobenzyl)oxy)-3-fluoropyridin-2-yl)-3-azabicyclo[3.1.0]hexan-3-yl)methyl)-1-((1-ethyl-1H-imidazol-5-yl)methyl)-4-methoxy-1H-benzo[d]imidazole-6-carboxylic acid]
[1]
  pIC50: < 4.00
Human GLP-1R receptor
  pEC50: 7.82
[2]
  pEC50: 8.03

## N#Cc1ccc(COc2cccc(C3CCN(Cc4nc5ccc(C(=O)O)cc5n4C[C@H]4CCO4)CC3)n2)c(F)c1 [Ref Comp B, reference compound]
[1]
  pIC50: 4.96

## Cc1cc(Cc2nc3ccc(C(=O)O)cc3n2C[C@@H]2CCO2)c(F)cc1-c1cccc(OCc2ccc(C#N)cc2F)n1 [Ref Comp D, reference compound]
[1]
  pIC50: 5.30

## COc1cc(C(=O)O)cc2c1nc(CN1C[C@@H]3[C@H](C1)[C@H]3c1nc(OCc3ccc(Cl)cc3F)ccc1Cl)n2C[C@@H]1CCO1 [Example 18, 2-(((1R,5S,6S)-6-(3-Chloro-6-((4-chloro-2-fluorobenzyl)oxy)pyridin-2-yl)-3-azabicyclo[3.1.0]hexan-3-yl)methyl)-4-methoxy-1-(((S)-oxetan-2-yl)methyl)-1H-benzo[d]imidazole-6-carboxylic acid]
Human GLP-1R receptor
  pEC50: 7.18
[2]
  pEC50: 7.38

## COc1cc(C(=O)O)cc2c1nc(CN1C[C@@H]3[C@H](C1)[C@H]3c1cccc(OCc3ccc(Cl)cc3F)n1)n2C[C@@H]1CCO1 [Example 11, 2-(((1R,5S,6S)-6-(6-((4-Chloro-2-fluorobenzyl)oxy)pyridin-2-yl)-3-azabicyclo[3.1.0]hexan-3-yl)methyl)-4-methoxy-1-(((S)-oxetan-2-yl)methyl)-1H-benzo[d]imidazole-6-carboxylic acid]
Human GLP-1R receptor
  pEC50: 7.77
[2]
  pEC50: 8.19

## CCn1cncc1Cn1c(CN2C[C@@H]3[C@H](C2)[C@H]3c2cccc(OCc3ccc(C#N)cc3F)n2)nc2ccc(C(=O)O)cc21 [Example 10, 2-(((1R,5S,6r)-6-(6-((4-Cyano-2-fluorobenzyl)oxy)pyridin-2-yl)-3-azabicyclo[3.1.0]hexan-3-yl)methyl)-1-((1-ethyl-1H-imidazol-5-yl)methyl)-1H-benzo[d]imidazole-6-carboxylic acid]
Human GLP-1R receptor
  pEC50: 7.38
[2]
  pEC50: 7.06

## CCn1cncc1Cn1c(CN2C[C@@H]3[C@H](C2)[C@H]3c2nc(OCc3ccc(C#N)cc3F)ccc2F)nc2c(OC)cc(C(=O)O)cc21 [Example 7, 2-(((1R,5S,6r)-6-(6-((4-Cyano-2-fluorobenzyl)oxy)-3-fluoropyridin-2-yl)-3-azabicyclo[3.1.0]hexan-3-yl)methyl)-1-((1-ethyl-1H-imidazol-5-yl)methyl)-4-methoxy-1H-benzo[d]imidazole-6-carboxylic acid]
Human GLP-1R receptor
  pEC50: 7.77
[2]
  pEC50: 7.42

## 2-(((1R,5S,6S)-6-(6-((4-Cyano-2-fluorobenzyl)oxy)pyridin-2-yl)-3-azabicyclo[3.1.0]hexan-3-yl)methyl)-4-methoxy-1-(((S)-oxetan-2-yl)methyl)-1H-benzo[d]imidazole-6-carboxylic acid [Example 5]
Human GLP-1R receptor
  pEC50: 6.62
[2]
  pEC50: 6.70

## N#Cc1ccc(COc2cccc([C@H]3[C@@H]4CN(Cc5nc6c(Cl)cc(C(=O)O)cc6n5C[C@@H]5CCO5)C[C@@H]43)n2)c(F)c1 [Example 8, 4-Chloro-2-(((1R,5S,6S)-6-(6-((4-cyano-2-fluorobenzyl)oxy)pyridin-2-yl)-3-azabicyclo[3.1.0]hexan-3-yl)methyl)-1-(((S)-oxetan-2-yl)methyl)-1H-benzo[d]imidazole-6-carboxylic acid]
Human GLP-1R receptor
  pEC50: 7.70
[2]
  pEC50: 8.00

## Cc1cc(C(=O)O)cc2c1nc(CN1C[C@@H]3[C@H](C1)[C@H]3c1cccc(OCc3ccc(C#N)cc3F)n1)n2C[C@@H]1CCO1 [Example 9, 2-(((1R,5S,6S)-6-(6-((4-Cyano-2-fluorobenzyl)oxy)pyridin-2-yl)-3-azabicyclo[3.1.0]hexan-3-yl)methyl)-4-methyl-1-(((S)-oxetan-2-yl)methyl)-1H-benzo[d]imidazole-6-carboxylic acid]
Human GLP-1R receptor
  pEC50: 7.11
[2]
  pEC50: 7.25

## N#Cc1ccc(COc2cccc([C@H]3[C@@H]4CN(Cc5nc6ccc(C(=O)O)cc6n5C[C@@H]5CCO5)C[C@@H]43)n2)c(F)c1 [Example 3, 2-(((1R,5S,6S)-6-(6-((4-Cyano-2-fluorobenzyl)oxy)pyridin-2-yl)-3-azabicyclo[3.1.0]hexan-3-yl)methyl)-1-(((S)-oxetan-2-yl)methyl)-1H-benzo[d]imidazole-6-carboxylic acid]
Human GLP-1R receptor
  pEC50: 7.12
[2]
  pEC50: 7.68

## N#Cc1ccc(COc2cccc(C3=CCN(Cc4nc5ccc(C(=O)O)cc5n4C[C@@H]4CCO4)CC3)n2)c(F)c1 [Ref Comp A, reference compound]
[1]
  pIC50: 5.40
